These results are taken from paper PMC10165273, “Itch receptor MRGPRX4 interacts with the receptor activity–modifying proteins” (The Journal of Biological Chemistry, 2023).

Where “and” joins values, the source holds several entries; their conditions need not be identical. Identical values can stand only once.

In assay [1] the target is T1, MRGPRX4 + RAMP3 (Homo sapiens, UniProt Q96LA9).
T1 construct: expressed in transfected cells; host or cells: HEK293T
Nature of the assay: IP1 accumulation, MRGPRX4 coexpressed with RAMP3. It is filed as cell-based. Set-up: key to IP1 Basal / response to agonist, X4:ramp3.I:0.25 / response to agonist, X4:ramp3.I:0.5 / response to agonist, X4:ramp3.I:1: % IP1; unstimulated mock = 0%, fully stimulated MRGPRX4 = 100%. Particulars: Figure 4c-f, agonist 100µM, MRGPRX4 = 100. Here is the method:
(§1) HEK293T cells were transfected with 1 pg/cell of MRGPRX4 DNA, and the amount of DNA was kept constant at 2 pg/cell with pcDNA3.1(+) empty vector, unless otherwise specified. Twenty four hours after transfection, IP1 assay was performed as previously described ([51]). When applicable, cells were treated with 1 μM YM254890 (YM) or different concentrations of U73122 for 1 h prior to addition of agonist or buffer. After incubation for 2 h, HTRF reagents and IP1 calibration standards were added and incubated for 2 h in the dark at room temperature. Time-resolved fluorescence signals were read on the BioTek Synergy NEO-TRF Hybrid multi-mode reader (BioTek Instruments). All data were carried out in three independent experiments with three technical replicate each.
(§2) For RAMP DNA titration assay, HEK293T cells were cotransfected with a constant amount of 1 pg/cell of FLAG-MRGPRX4-GFP10-1D4 to which a serial dilution of 1, 0.75, 0.5, 0.25, or 0 pg/cell of each HA-RAMP-OLLAS was added. For a homogenous transfection of MRGPRX4, a master mix of MRGPRX4 DNA was made prior to addition of the RAMP DNA. […]
(§3) Data reduction, standard calibration, and transformation of HTRF data were performed as previously described ([51]). Normalized IP1 values were calculated relative to the unstimulated mock-transfected cells (set to 0%) and fully stimulated MRGPRX4 (alone if applicable) (set to 100%).

Assay [2] deals with T2, MRGPRX4 + RAMP2 (Homo sapiens, UniProt Q96LA9).
T2 construct: expressed in transfected cells; host or cells: HEK293T
Nature of the assay: IP1 accumulation, MRGPRX4 coexpressed with RAMP2. It is filed as cell-based. More on the design: key to response to agonist, X4:ramp2.I:2: % IP1: mock-transfected unstimulated = 0%, fully stimulated MRGPRX4 = 100%; key to IP1 Basal / response to agonist, X4:ramp2.I:0.25 / response to agonist, X4:ramp2.I:0.5 / response to agonist, X4:ramp2.I:1: % IP1; unstimulated mock = 0%, fully stimulated MRGPRX4 = 100%. The following applies: Figure 4c-f, agonist 100µM, MRGPRX4 = 100. The protocol:
as §1, §2, §3

T2 sequence (Q96LA9 whole entry): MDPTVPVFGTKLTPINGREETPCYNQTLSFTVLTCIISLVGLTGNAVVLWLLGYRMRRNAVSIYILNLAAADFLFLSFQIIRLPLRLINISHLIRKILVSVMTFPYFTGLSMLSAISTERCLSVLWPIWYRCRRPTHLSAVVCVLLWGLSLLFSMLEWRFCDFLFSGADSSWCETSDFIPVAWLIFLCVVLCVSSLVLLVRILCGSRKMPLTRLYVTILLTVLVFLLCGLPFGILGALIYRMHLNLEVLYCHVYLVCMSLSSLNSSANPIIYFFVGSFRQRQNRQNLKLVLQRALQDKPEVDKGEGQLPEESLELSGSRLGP
T1 sequence (Q96LA9 whole entry): as above

`C[C@H](CCC(=O)NCCS(=O)(=O)O)[C@H]1CC[C@H]2[C@@H]3CC[C@@H]4C[C@H](O)CC[C@]4(C)[C@H]3C[C@H](O)[C@]12C` [TDCA, Taurodeoxycholic acid]: the “response to agonist, X4:ramp3.I:0.25” value in assay [1] (X4:ramp3 1:0.25) was 75.8743 and 69.8198. In assay [1] (X4:ramp3 1:0.5), the “response to agonist, X4:ramp3.I:0.5” value is 71.1633 and 71.0507. In assay [1] (X4:ramp3 1:1), the “response to agonist, X4:ramp3.I:1” value is 68.5255 and 51.1881. Further, the “response to agonist, X4:ramp2.I:0.25” value in assay [2] (X4:ramp2 1:0.25) is 76.6313 and 76.3781. Also, the “response to agonist, X4:ramp2.I:0.5” value in assay [2] (X4:ramp2 1:0.5) was 59.1022 and 61.5718. In addition, in assay [2] (X4:ramp2 1:1), the “response to agonist, X4:ramp2.I:1” value is 39.1806 and 35.15. The “response to agonist, X4:ramp2.I:2” value in assay [2] (X4:ramp2 1:2) is 12.332 and 15.0971.
